From patent US20220110949A1, “A 19-NOR C3,3-DISUBSTITUTED C21-N-PYRAZOLYL STEROID AND METHODS OF USE THEREOF” (Sage Therapeutics, Inc., priority 2017, published 2022)
Marks after values point to notes of the source that are not given here.

Experiments:
[1] = tested on: healthy adults, 5-hour phase advance model of insomnia; assay: Double-blind, placebo-controlled 3-way crossover study; polysomnography (PSG) and subjective sleep measures in a 5-hour phase advance model of insomnia; format: in vivo, human; design: LPS decrease from baseline: dose or concentration left out as unconfirmed; details: for LPS (min), Median / NAW, Median / SE (%) (sleep efficiency), Median / TST (min), Median / WASO (min), Median / mDURAW (min), Median: PSG; for decrease in median duration of awakenings from baseline: baseline 9.364, awakenings in minutes; for TST median change (increase) from baseline: baseline median 317.00 minutes; for Sleep efficiency (SE) increase from baseline (median): median at baseline 66.042%; for WASO median change from baseline: median at baseline 134.00 minutes; for Subjective Sleep Quality (sSQ) Median (min, max): scale of 1 (poor) to 10 (excellent)
Text: Example 1. A Randomized, Double-Blind, Multiple Dose, 3-Way Crossover, Exploratory Study to Assess the Pharmacodynamic Effects of Compound 1 Capsules in Healthy Adults Using a 5-Hour Phase Advance Model of Insomnia
Sleep efficiency, defined as the percentage of time in bed spent asleep, as determined by polysomnography (PSG).
This is a double-blind, placebo-controlled, 3-way crossover study (Treatment Periods 1, 2, and 3), followed by an open-label administration of Compound 1 for pharmacokinetic purposes (Treatment Period 4). Subjects are expected to participate in Treatment Periods 1, 2 and 3. These subjects may continue into Treatment Period 4. If necessary, de novo subjects may also be included in Treatment Period 4 (see FIG. 2).
Subjects who meet the sleep diary continuation criteria will return for Visit 2 (Day −7) for a one-night PSG qualification visit. The PSG qualification visit (Visit 2) will begin on Study Day −7 and will continue to Study Day −6. The CRC will determine the median habitual bedtime from their sleep diary. Subjects should arrive at the clinic about 7 hours prior to their habitual bedtime for the one-night PSG qualification visit. Subjects will receive a standard meal and be prepared for overnight PSG recording. Lights out and PSG recording will begin five hours (±30 minutes) earlier than their mean habitual bedtime. Subjects will be required to remain in bed for eight hours, after which time the PSG recording will end, lights will turn on, and subjects will be awakened if asleep. Subjects will complete a Post Sleep Questionnaire about their subjective sleep thirty minutes after the end of the recording. Subjects will be discharged after all morning assessments have been completed at the discretion of the investigator. Subjects will have the option to remain in the clinic (e.g., to sleep at the clinic) until 9 AM.
Treatment Period 1 (Visit 3) begins on Study Day 1 and continues till Study Day 2. Subjects should arrive at the clinic approximately 7 hours prior to their habitual bedtime. Eligibility criteria will be confirmed and subjects will be randomized (1:1:1:1:1:1) to one of six possible treatment sequences (see FIG. 1). Predose assessments will be conducted. Subjects will receive a standard meal and be prepared for overnight PSG recording. Thirty minutes (±15 minutes) prior to lights out, blinded study drug (30 mg Compound 1, 45 mg Compound 1, or placebo) will be administered with food. Lights out and the PSG recording will begin five hours (±30 minutes) prior to their habitual bedtime. Subjects will be required to remain in bed for eight hours, after which time the lights will turn on, and subjects will be awakened if asleep. The PSG recording will end after 5 minutes (±1 minute) of quiet wakefulness is recorded. Subjects should complete a Post Sleep Questionnaire 30 minutes after the end of the recording. Post-PSG safety assessments will be conducted per the Schedule of Assessments. […] Subjects will have the option to remain in the clinic (e.g., to sleep at the clinic) until 9:00 AM.
Treatment Period 2 (Visit 4, Study Days 8 to 9) and Treatment Period 3 (Visit 5, Study Days 15 to 16) will follow similar procedures. Subjects will resume normal sleep patterns and maintain a sleep diary during the washout periods between treatments.
For Treatment Periods 1, 2, and 3, each subject will receive a single dose of study drug (30 mg Compound 1, 45 mg Compound 1, or placebo) on 3 separate visits; each subject will receive each dose level or placebo once. Study subjects who participate in Treatment Period 4 will receive one additional single dose of Compound 1 (30 mg) during one separate study visit.
The Efficacy Set will include all subjects in the Safety Set who have post-dose PSG data. Sleep efficiency will be analyzed using a mixed effects model for repeated measures (MMRM); the model will include treatment, treatment sequence, and period as fixed effects, with adjustment for screening sleep efficiency. […]

healthy adults = assay: Safety and tolerability (adverse events) in the study of Example 1; format: in vivo, human; details: single dose 30 mg or 45 mg
Text: Frequency, type, severity of adverse events; changes in vital sign assessments, clinical laboratory data, electrocardiogram (ECG) parameters, suicidality assessment via the Columbia Suicide Severity Rating Scale (C-SSRS), sleepiness assessment via Karolinska Sleepiness Scale (KSS), and psychomotor performance assessment via Digit Symbol Substitution Test (DSST)
The safety and tolerability of Compound 1 Capsules will be evaluated by frequency, type, and severity of adverse events; mean changes from baseline in clinical laboratory measures, vital signs, ECGs, suicidal ideation using the C-SSRS, sleepiness using the KSS, and psychomotor performance using the DSST.
Adverse events will be classified by type, incidence, severity, and causality. The overall incidence of adverse events will be summarized by Medical Dictionary for Regulatory Activities (MedDRA) system organ class and preferred term. Data for vital signs, clinical laboratory measurements, ECG, and concomitant medication usage will also be summarized. Suicidality data collected using the C-SSRS at baseline and at each visit during the active Treatment Period will be listed for all subjects. The C-SSRS listings will include behavior type and/or category for suicidal ideation and suicidal behavior of the C-SSRS. Out-of-range safety endpoints may be categorized as low or high, where applicable. […]

Compound: C[C@@]1(O)CC[C@H]2[C@H](CC[C@@H]3[C@@H]2CC[C@]2(C)[C@@H](C(=O)Cn4cc(C#N)cn4)CC[C@@H]32)C1 [Compound 1]
- Latency to persistent sleep (LPS) (min), Median Difference from Placebo ([1]; 30 mg): -1.50 min
- Mean Duration of Awakenings (mDURAW) (min), Median Difference from Placebo ([1]; 30 mg): −3.43** min
- Number of Awakenings (NAW), Median Difference from Placebo ([1]; 30 mg): −1.00
- REM Sleep ([1]; 30 mg): 50.15 min
- Sleep Efficiency (SE) (%), Median Difference from Placebo ([1]; 30 mg): 11.35* %
- Stage N1 ([1]; 30 mg): 20.11 min
- Stage N2 ([1]; 30 mg): 258.16 min
- Stage N3 (SWS) ([1]; 30 mg): 68.38 min
- Subjective Sleep Latency (sSL) (min) Median (min, max) ([1]; 30 mg): 15 (2, 240) min
- Subjective TST (sTST) (min) Median (min, max) ([1]; 30 mg): 450.0 (40, 555) min
- Subjective WASO (sWASO) (min) Median (min, max) ([1]; 30 mg): 10.0 (0, 120) min
- Total sleep time (TST) (min), Median Difference from Placebo ([1]; 30 mg): 54.50* min
- Wakefulness after sleep onset (WASO (min), Median Difference from Placebo) ([1]; 30 mg): −22.00* min
- effect on REM sleep ([1]; 30 mg and 45 mg): did not disrupt REM sleep
- LPS (min), Median ([1]; 30 mg single evening dose): 13.25 min
- NAW, Median ([1]; 30 mg single evening dose): 8.00
- SE (%) (sleep efficiency), Median ([1]; 30 mg single evening dose): 84.64%
- TST (min), Median ([1]; 30 mg single evening dose): 406.25 min
- WASO (min), Median ([1]; 30 mg single evening dose): 55.00 min
- mDURAW (min), Median ([1]; 30 mg single evening dose): 4.23 min
- decrease in median duration of awakenings from baseline ([1]; 30 mg): 2.629
- TST median change (increase) from baseline ([1]; 30 mg): 85.25 min
- Sleep efficiency (SE) increase from baseline (median) ([1]; 30 mg): 17.761%
- WASO median change from baseline ([1]; 30 mg): -74.75 min
- LPS decrease from median baseline ([1]; 30 mg, median baseline 28.50): 13.25 min
- Subjective Sleep Quality (sSQ) Median (min, max) ([1]; 30 mg): 8.0 (5, 10)
- Latency to persistent sleep (LPS) (min), Median Difference from Placebo ([1]; 45 mg): -1.00 min
- Mean Duration of Awakenings (mDURAW) (min), Median Difference from Placebo ([1]; 45 mg): −1.50+ min
- Number of Awakenings (NAW), Median Difference from Placebo ([1]; 45 mg): −2.00
- REM Sleep ([1]; 45 mg): 43.54 min
- Sleep Efficiency (SE) (%), Median Difference from Placebo ([1]; 45 mg): 12.61* %
- Stage N1 ([1]; 45 mg): 19.58 min
- Stage N2 ([1]; 45 mg): 266.79 min
- Stage N3 (SWS) ([1]; 45 mg): 74.71 min
- Subjective Sleep Latency (sSL) (min) Median (min, max) ([1]; 45 mg): 10 (1, 60) min
- Subjective TST (sTST) (min) Median (min, max) ([1]; 45 mg): 465.0 (0, 510) min
- Subjective WASO (sWASO) (min) Median (min, max) ([1]; 45 mg): 5.0 (0, 300) min
- Total sleep time (TST) (min), Median Difference from Placebo ([1]; 45 mg): 60.50* min
- Wakefulness after sleep onset (WASO (min), Median Difference from Placebo) ([1]; 45 mg): −55.50* min
- LPS (min), Median ([1]; 45 mg single evening dose): 14.25 min
- NAW, Median ([1]; 45 mg single evening dose): 7.00
- SE (%) (sleep efficiency), Median ([1]; 45 mg single evening dose): 87.55%
- TST (min), Median ([1]; 45 mg single evening dose): 420.25 min
- WASO (min), Median ([1]; 45 mg single evening dose): 42.50 min
- mDURAW (min), Median ([1]; 45 mg single evening dose): 3.67 min
- decrease in median duration of awakenings from baseline ([1]; 45 mg): 4.261
- TST median change (increase) from baseline ([1]; 45 mg): 96.00 min
- Sleep efficiency (SE) increase from baseline (median) ([1]; 45 mg): 20.000%
- WASO median change from baseline ([1]; 45 mg): -75.25 min
- Subjective Sleep Quality (sSQ) Median (min, max) ([1]; 45 mg): 9.0 (6, 10)
- LPS decrease from baseline ([1]; median baseline 28.50): 14.50 min
- impact on latency to persistent sleep (LPS) ([1]; single dose capsule of 30 mg or 45 mg in the evening): did not impact
- intensity of adverse events (healthy adults): mild
- serious or severe adverse events (healthy adults): no serious or severe adverse events were observed
